target: AT2 Receptor (AT2R) (Homo sapiens (Human), UniProt P50052); assay: Inhibitory activity on AT2 receptor (Tag-lite HTRF, Tb-labeled AT2R cells, angiotensin receptor red agonist); assay type: binding; settings: 1 h at room temperature
Sequence (P50052 whole entry): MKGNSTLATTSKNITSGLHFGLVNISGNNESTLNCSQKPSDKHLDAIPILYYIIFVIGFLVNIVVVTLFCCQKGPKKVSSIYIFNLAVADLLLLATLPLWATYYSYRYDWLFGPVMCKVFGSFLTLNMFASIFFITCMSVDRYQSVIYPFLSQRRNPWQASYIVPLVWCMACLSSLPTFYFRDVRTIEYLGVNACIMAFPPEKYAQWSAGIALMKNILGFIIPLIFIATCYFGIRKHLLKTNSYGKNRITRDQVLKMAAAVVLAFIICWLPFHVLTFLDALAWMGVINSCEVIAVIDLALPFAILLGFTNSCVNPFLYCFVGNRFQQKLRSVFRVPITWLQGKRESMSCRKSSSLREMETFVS

| SMILES | IC50 |
| --- | --- |
| CN(Cc1ccccc1)C(=O)N1CCN(C(=O)N2c3ccccc3C=Cc3ccccc32)[C@H](C(=O)O)C1 [Compound C88, (S)-4-(benzyl(methyl)carbamoyl)-1-(5H-dibenzo[b,f]azepine-5-carbonyl) piperazine-2-carboxylic acid] | 387 nM |
| CCN(Cc1ccccc1)C(=O)N1CCN(C(=O)N2c3ccccc3CC(=O)c3ccccc32)[C@H](C(=O)O)C1 [Compound C78, (S)-4-(benzyl(ethyl)carbamoyl)-1-(10-oxo-10,11-dihydro-5H-dibenzo [b,f]azepine-5-carbonyl) piperazine-2-carboxylic acid] | 88.2 nM |
| O=C(O)[C@@H]1CN(C(=O)N2c3ccccc3CCc3ccccc32)CCN1C(=O)N1c2ccccc2CCc2ccccc21 [Compound C76, (S)-1,4-bis(10,11-dihydro-5H-dibenzo [b,f]azepine-5-carbonyl)piperazine-2-carboxylic acid] | 156 nM |
| O=C(O)[C@@H]1CN(C(=O)N(c2ccccc2)c2ccccc2)CCN1C(=O)C1(O)c2ccccc2-c2ccccc21 [Compound C85, (S)-4-(diphenylcarbamoyl)-1-(9-hydroxy-9H-fluorene-9-carbonyl)piperazine-2-carboxylic acid] | 461 nM |
| CCN(Cc1ccc(C)s1)C(=O)N1CCN(C(=O)N(c2ccccc2)c2ccccc2)[C@H](C(=O)O)C1 [Compound C134, (S)-1-(diphenylcarbamoyl)-4-(ethyl((5-methylthiophen-2-yl)methyl)carbamoyl) piperazine-2-carboxylic acid] | 18.5 nM |
| CCN1C(=O)c2ccccc2N(C(=O)N2CCN(C(=O)N(c3ccccc3)c3ccccc3)C[C@H]2C(=O)O)c2ccccc21 [Compound C98, (S)-4-(diphenylcarbamoyl)-1-(10-ethyl-11-oxo-10,11-dihydro-5H-dibenzo[b,e][1,4]diazepine-5-carbonyl) piperazine-2-carboxylic acid] | 8.18 nM |
| COc1cccc(N(C(=O)N2CCN(C(=O)N3c4ccccc4CC(=O)c4ccccc43)[C@H](C(=O)O)C2)c2cccc(OC)c2)c1 [Compound C108, (S)-4-(bis(3-methoxylphenyl)carbamoyl)-1-(10-oxo-10,11-dihydro-5H-dibenzo [b,f]azepine-5-carbonyl)piperazine-2-carboxylic acid] | 51.1 nM |
| O=C1Nc2ccccc2N(C(=O)N2CCN(C(=O)N(c3ccccc3)c3ccccc3)C[C@H]2C(=O)O)c2ccccc21 [Compound C53, (S)-4-(diphenylcarbamoyl)-1-(11-oxo-10,11-dihydro-5H-dibenzo[b,e][1,4]diazepine-5-carbonyl)piperazine-2-carboxylic acid] | 1340 nM |
| O=C(O)[C@@H]1CN(C(=O)OCc2cccs2)CCN1C(=O)N(c1ccccc1)c1ccccc1 [Compound C140, (S)-1-(diphenylcarbamoyl)-4-((thiophene-2-ylmethoxy)carbonyl) piperazine-2-carboxylic acid] | 331 nM |
| O=C1Cc2ccccc2N(C(=O)N2CCN(C(=O)N(c3ccccc3F)c3ccccc3F)C[C@H]2C(=O)O)c2ccccc21 [Compound C91, (S)-4-(bis(2-fluophenyl)carbamoyl)-1-(10-oxo-10,11-dihydro-5H-dibenzo [b,f]azepine-5-carbonyl)piperazine-2-carboxylic acid] | 30.7 nM |
| COc1ccccc1N(C(=O)N1CCN(C(=O)N2c3ccccc3CC(=O)c3ccccc32)[C@H](C(=O)NS(=O)(=O)N(C)C)C1)c1ccccc1OC [Compound C111, (S)-N^3-(N,N-dimethylsulphamoyl)-N^1,N^1-bis (2-methoxyphenyl)-4-(10-oxo-10,11-dihydro-5H-dibenzo[b,f]azepine-5-carbonyl) piperazine-1,3-dicarboxamide] | 229 nM |
| Cc1ccccc1N(C(=O)N1CCN(C(=O)N2c3ccccc3C=Cc3ccccc32)[C@H](C(=O)O)C1)c1ccccc1 [Compound C59, (S)-1-(5H-dibenzo[b,f]azepine-5-carbonyl)-4-(phenyl(orthomethylphenyl)carbamoyl) piperazine-2-carb oxylic acid] | 67.9 nM |
| O=C(N1CCN(C(=O)N2c3ccccc3C=Cc3ccccc32)[C@H](c2nnn[nH]2)C1)N(c1ccccc1)c1ccccc1 [Compound C31, (S)-4-(5H-dibenzo[b,f]azepine-5-carbonyl)-N,N-diphenyl-3-(1H-tetrazol-5-yl)piperazine-1-carboxamide] | 219 nM |
| CN1C(=O)c2ccccc2N(C(=O)N2CCN(C(=O)N(c3ccccc3)c3ccccc3)C[C@H]2C(=O)O)c2ccccc21 [Compound C96] | 13.1 nM |
| O=C(O)[C@@H]1CN(C(=O)C2(c3ccccc3)CCCC2)CCN1C(=O)N(c1ccccc1)c1ccccc1 [Compound C83, (S)-1-(diphenylcarbamoyl)-4-(1-phenylcyclopentanecarbonyl) piperazine-2-carboxylic acid] | 6.35 nM |
| O=C(O)[C@@H]1CN(C(=O)N2CCC[C@@H]2c2ccccc2)CCN1C(=O)N(c1ccccc1)c1ccccc1 [Compound C128, (S)-1-(diphenylcarbamoyl)-4-((R)-2-phenylpyrrolidine-1-carbonyl) piperazine-2-carboxylic acid] | 12.4 nM |
| CCN(Cc1ccsc1)C(=O)N1CCN(C(=O)N2c3ccccc3CC(=O)c3ccccc32)[C@H](C(=O)O)C1 [Compound C79, (S)-4-(ethyl (thiophene-3-ylmethyl)carbamoyl)-1-(10-oxo-10,ll-dihydro-5H-dibenzo[b,f]azepine-5-carbonyl) piperazine-2-carboxylic acid] | 460 nM |
| CN(Cc1ccccc1)C(=O)N1CCN(C(=O)C(C)(c2ccccc2)c2ccccc2)[C@H](C(=O)O)C1 [Compound C133, (S)-4-(benzyl(methyl)carbamoyl)-1-(2,2-diphenylpropionyl) piperazine-2-carboxylic acid] | 24.3 nM |
| Cc1cc(CN(C(=O)N2CCN(C(=O)N(c3ccccc3)c3ccccc3)[C@H](C(=O)O)C2)C2CC2)cs1 [Compound C146, (S)-4-(cyclopropyl((5-methylthiophen-3-yl)methyl)carbamoyl)-1-(diphenylcarbamoyl) piperazine-2-carboxylic acid] | 14.2 nM |
| Cc1cc(CN(C)C(=O)N2CCN(C(=O)N(c3ccccc3)c3ccccc3)[C@H](C(=O)O)C2)sc1C [Compound C144, (S)-4-(((4,5-dimethylthiophen-2-yl)methyl)(methyl)carbamoyl)-1-(diphenylcarbamoyl) piperazine-2-carboxylic acid] | 98.1 nM |
| O=C(O)[C@@H]1CN(C(=O)N(c2ccccc2)c2ccccc2)CCN1C(=O)N1CCC[C@H]1c1ccccc1 [Compound C129, (S)-4-(diphenylcarbamoyl)-1-((S)-2-phenylpyrrolidinyl-1-carbonyl)piperazine-2-carboxylic acid] | 98.6 nM |
| O=C1Cc2ccccc2N(C(=O)N2CCN(C(=O)N(c3ccccc3)c3ccccc3)C[C@H]2c2nn[nH]n2)c2ccccc21 [Compound C104, (S)-4-(10-oxo-10,11-dihydro-5H-dibenzo[b,f]azepine-5-carbonyl)-N, N-diphenyl-3-(1H-tetrazol-5-yl)piperazine-1-carboxamide] | 298 nM |
| O=C1Cc2ccccc2N(C(=O)N2CCN(C(=O)N(c3ccc(F)cc3)c3ccc(F)cc3)C[C@H]2C(=O)O)c2ccccc21 [Compound C105, (S)-4-(bis(4-fluorinephenyl)carbamoyl)-1-(10-oxo-10,11-dihydro-5H-dibenzo [b,f]azepine-5-carbonyl)piperazine-2-carboxylic acid] | 161 nM |
